In patent publication US7868163B2, “Adenyl dinucleotides with antitumour activity and a method of preparing thereof” (Universita' Degli Studi Di Genova, priority 2005, dated 2011):
Where two headings read alike, the source gives them in different places.

Key:
CD38^− HeLa = experiment: MTT reduction proliferation assay, CD38- HeLa; assay type: cell-based, human; settings: 24 hours
Method: (§1) The effect of P18 and P24 on the proliferation of several cell lines was determined by the MTT reduction assay (Mosmann, T. (1983) J. Immunol. Methods 65, 55-63). […] After 24 hours, 10 μl of a 5 mg/ml solution of MTT were added to each well and the plates incubated for a further 2 hours. The supernatant was then removed from each well and the blue crystals produced by the reduction of the dye were dissolved in DMSO (200 μl/well). The optical absorbance at 570 nm was determined with a BioRad microplate reader.
(§2) In these experiments, cells were seeded onto 96 well plates (3×10^4 cells per well) and incubated in the presence of increasing concentrations of P18 or P24. After 24 hours, the percentage of viable cells was evaluated by spectrophotometric measurement of the concentration of reduced MTT (see Materials and Methods). The means of at least three separate experiments are shown (s.d.≦20% of the mean value). The production of P18 and P24 by human CD38 cyclase, with inhibitory effects on colony growth, together with cADPR, with stimulatory effect, may be at least partly responsible for the colony growth inhibition observed during long term culture of human HP cells on CD38^+ stroma. […]

HEP-G2 = experiment: MTT reduction proliferation assay, HEP-G2; assay type: cell-based, human; settings: HEP-G2 hepatocarcinoma, 24 hours
Method: as §1, §2

[1] = system: CFC (colony forming cells); experiment: CFC colony growth from cord blood mononuclear cells in semi-solid medium; assay type: cell-based, human; settings: for IC50: read-out: IC50, inhibition of CFC colony growth; for reduction of toxicity by digestion with NPP and CIP: FIG. 4, CFC growth
Method: Mononuclear cells isolated from cord blood were incubated in the presence of various concentrations of P18 (▴), P24 (▪) and the iso-adenosine units resulting from the enzymatic digestion of P18 (Δ) and P24 (□). After 24 hours, aliquots of cells (1-2×10^4) were seeded in semi-solid medium to allow for colony growth. Results are expressed as percentage of inhibition of colony growth compared with controls, represented by cells incubated with the same dilution of chromatographic buffer as present in the HPLC-purified compounds. The IC50 values were obtained from the logarithmic regression curves (R≧0.97). The results shown in this figure are the mean from at least three different experiments.
Mononuclear cells were isolated from cord blood (CB MNC) by a density gradient, washed by centrifugation and resuspended in complete medium (Mosmann, T. (1983) J. Immunol. Methods 65, 55-63). Cells (10^6/ml) were incubated for 24 hours in complete medium in the presence of different dinucleotides at concentrations comprised between 20 and 0.4 μM. Then, aliquots of cells (1-2×10^4) were seeded in semi-solid medium, supplemented with haemopoietic growth factors (Methocult, Stem Cell Technologies, Vancouver, BC), in order to allow colonies to develop. After 2 weeks in culture, the colonies which were grown were microscopically identified according to standard criteria (CFU-E, CFU-GM and CFU-GEM) and counted: each colony identifies a colony forming cell (CFC).

[2] = Storage stability of purified lyophilised peaks; settings: stored at −20° C., several months (approx. 6)
Method: The cyclase purified from A. polypoides was used for the production of the dinucleotides for structural and functional studies. In a total volume of 0.4 ml of 10 mM Tris-HCl, pH 7.0, 0.05 mg of purified cyclase were incubated with 1 mM cADPR (or NAD^+), 5 mM adenine and 2 mM MgCl2 at room temperature. cADPR or NAD^+ was added to the reaction mixture every 6 hours, while every 24 hours fresh cyclase was added and an aliquot of the incubation was deproteinised with TCA (5% final concentration) and analysed by HPLC (analytical phosphate) to monitor dinucleotide production. After 3-5 days, the resulting incubation was extracted with TCA and 250 μl aliquots were injected into an HPLC column (preparative phosphate). The P18, P24 and P31 peaks were collected, lyophilised in a RotoVapor, re-dissolved in deionised water and injected into an HPLC column (preparative formate). […] The purified peaks produced by Axinella cyclase were used in in vitro experiments on the various cell types described hereinafter, for the enzymatic production of mononucleotides and nucleosides (see below), as internal and external HPLC standards to identify the dinucleotides in cell extracts, and for detecting the absorption spectra stored in the liquid chromatograph library as standards.

CD38^− HeLa cells = experiment: Intracellular calcium assay (FURA 2-AM), CD38- HeLa; assay type: cell-based, human; settings: 10 μM for 18 hours; for tapsigargine-induced release of calcium from ER stores [Ca^2+]i: 1 μM tapsigargine
Method: Adherent CD38^+ and CD38^− human HeLa cells on 20 mm-diameter coverslips were incubated in complete medium in the presence of […] P18 or P24 for […]. The cells were then washed, incubated with 6 μM Fura 2-acetoxymethyl ester (FURA 2-AM) in standard saline (135 mM NaCl, 5.4 mM KCl, 1.8 mM CaCl2, 1 mM MgCl2, 5 mM Hepes, 10 mM glucose, pH 7.4) for 45 minutes at 37° C. and then washed several times with saline. Calcium measurements were performed in a 200-μl chamber mounted on an inverted microscope, as described in detail in Zocchi E., et al. (1998) J. Biol. Chem. 273, 8017-8024. After determination of basal [Ca^2+]i levels, 1 μM tapsigargine was added to induce the release of calcium from tapsigargine-sensitive stores ([…]). The parameter values needed for calibration were obtained at the end of the experimental measurements, as described in Zocchi E., et al. (1998) J. Biol. Chem. 273, 8017-8024.
Basal cytosolic calcium and tapsigargine-induced release of calcium from […] (ER) stores (in bold in Table 4) were measured in CD38^+ and CD38^− HeLa cells loaded with FURA 2-AM and incubated in the absence (control) or in the presence of P18 or P24 at a concentration of 10 μM for 18 hours. The results obtained, expressed as [Ca^2+]I nanomolarity, are summarised in Table 4, showing mean results from 8 separate experiments (s.d.≦15% of the mean value).

CD38^− cells = experiment: Uptake of extracellularly added dinucleotides in CD38- cells; assay type: in vitro ADME, human; settings: 15 μM added extracellularly
[3] = 24 hours incubation of cord blood mononuclear cells, colonies counted after 2 weeks

Structure (SMILES)	IC50 (CD38^− HeLa) [µM]	IC50 (HEP-G2) [µM]	IC50 ([1]; 2 hours of incubation) [nM]	IC50 [1, 3] [nM]	reduction of toxicity by digestion with NPP and CIP [1] [fold]	degradation on storage [2]	ER stores-calcium, % of the control (CD38^− HeLa cells) [%]	basal [Ca^2+]i, % of the control (CD38^− HeLa cells) [%]	basal cytosolic free calcium [Ca^2+]i (CD38^− HeLa cells) [nM]	tapsigargine-induced release of calcium from ER stores [Ca^2+]i (CD38^− HeLa cells) [nM]	rate of increase of intracellular concentration (uptake) (CD38^− cells)
Nc1ncnc2c1ncn2[C@@H]1O[C@H](COP(=O)(O)OP(=O)(O)OC[C@H]2O[C@@H](n3cnc4ncnc-4c3N)[C@H](O)[C@@H]2O)[C@@H](O)[C@H]1O [P18]	150	78	30000	1000	40	no dinucleotide degradation was observed	78	52	12	366	approx. 2.4 pmol/min/mg
Nc1ncn([C@@H]2O[C@H](COP(=O)(O)OP(=O)(O)OC[C@H]3O[C@@H](n4cnc5c(N)ncnc54)[C@H](O)[C@@H]3O)[C@@H](O)[C@H]2O)c2ncnc1-2 [P24]	9.8	18.2		180	30	no dinucleotide degradation was observed	60	191	44	290	approx. 2.4 pmol/min/mg
